Here are results for five compounds from patent publication US8518997B2, “4-(phenoxyalkyl)thio)-phenoxyacetic acids and analogs” (Janssen Pharmaceutica N.V., priority 2003, dated 2013).

“And” between values parts separate entries of the source, which are not always exact repeats. Equal values may be shown once.

In test [1] the test system is differentiated THP-1 monocytes. To be noted: cited from earlier work.
For the next test, the target named is T1, PPAR delta (Homo sapiens, UniProt Q03181).
T1 sequence (Q03181 171-441 limits assumed): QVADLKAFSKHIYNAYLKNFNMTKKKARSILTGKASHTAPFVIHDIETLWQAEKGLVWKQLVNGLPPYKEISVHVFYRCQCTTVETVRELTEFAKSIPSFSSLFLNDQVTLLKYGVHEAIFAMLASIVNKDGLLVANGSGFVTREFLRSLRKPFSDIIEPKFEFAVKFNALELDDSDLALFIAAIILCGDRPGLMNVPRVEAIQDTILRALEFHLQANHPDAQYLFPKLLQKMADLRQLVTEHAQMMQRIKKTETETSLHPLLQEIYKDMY
The test is described as follows: Transfection assay for PPAR receptors (PPAR-Gal4 / Gal4-Luciferase reporter in HEK293 cells). It is filed as cell-based. As to conditions: HEK293 cells co-transfected with PPAR-Gal4 (δ) receptor and Gal4-Luciferase reporter, 24 hours; multiple EC50's = multiple measurements; Table 2. The method, then:
Transfection Assay Method for PPAR Receptors
HEK293 cells were grown in DMEM/F-12 Media supplemented with 10% FBS and glutamine (GIBCOBRL). The cells were co-transfected with DNA for PPAR-Gal4 (PPARα, γ or δ) receptor and Gal4-Luciferase Reporter using the DMRIE-C Reagent. On the following day, the medium was replaced with 5% Charcoal treated FBS growth medium. After six hours, cells were trypsinized and seeded at a density of 50,000 cell/well into 96 well plates and incubated overnight at 37° C. in a 5% CO2 incubator. Cells were then treated with test compounds or vehicle and incubated for 24 hours at 37° C. in a 5% CO2 incubator. Luciferase activity was assayed using the Steady-Glo Luciferase Assay Kit from Promega. […] Steady-Glo Luciferase Assay Kit was purchased from Promega Part# E254B.

`Cc1cc(SCc2sc(-c3ccc(C(F)(F)F)cc3)nc2C)ccc1OCC(=O)O` [GW501516]: in test [1], the “ABCA1 mRNA expression” value is “induced” and the cholesterol efflux result was “enhanced”.

Turning to `COCCC(COc1ccc(C(F)(F)F)cc1)CSc1ccc(OCC(=O)O)c(C)c1` (stereo not drawn) [Compound 35, {4-[4-Methoxy-2-(4-trifluoromethyl-phenoxymethyl)-butylsulfanyl]-2-methyl-phenoxy}-acetic acid], the EC50 on PPAR delta is 2.3 nM and 4.1 nM.

Take `CCOC(COc1ccc(C(F)(F)F)cc1)COc1ccc(OCC(=O)O)c(C)c1` (stereo not drawn) [Compound 44, {-4-[2-Ethoxy-3-(4-trifluoromethyl-phenoxy)-propoxy]-2-methyl-phenoxy}-acetic acid]: the EC50 on PPAR delta was determined as 24.3 nM. That is a double-digit nanomolar value. On the same count and under the same terms, the same measure for `Cc1cc(OCC(O)COc2ccc(C(F)(F)F)cc2)ccc1OCC(=O)O` (stereo not drawn) [Compound 45]: 618 nM. On to `CCOC(COc1ccc(C(F)(F)F)cc1)CSc1ccc(CC(=O)O)cc1Cl` (stereo not drawn) [Compound 32, {3-Chloro-4-[2-ethoxy-3-(4-trifluoromethyl-phenoxy)-propylsulfanyl]-phenyl}-acetic acid], for which the concentration giving a half-maximal response (EC50) at PPAR delta was determined as 11.2 nM.

A word on the EC50: it is the concentration at which the effect is half-maximal. A low value points to higher potency in that assay.
